pIC50: −log10 of the molar value.
System: NCI-H1417 complex spheroids, growth % test/control
Assay: Anticancer human tumor NCI-H1417 cell line growth inhibition [Asc];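 also: spheroids exposed to compounds for 7 days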;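 as to viability, T/C: 100% = DMSO vehicle control wells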
Details: for pIC50: curve of first compound; for viability, T/C: stronger effect = lower value; active = viability on the fitted dose curve at most 10% of control; inactive = the rest
Protocol: Multicellular complex tumor spheroid response to apoptosis pathway targeting inhibitors Alrizomadlin, Pelcitoclax, and Dasminapant in combination with a variety of drugs and investigational agents in selected tumor cell lines
The MDM2 inhibitor alrizomadlin, the Bcl-2/Bcl-xL inhibitor pelcitoclax, and the IAPs inhibitor dasminapant were evaluated both individually and in combination with standard of care and investigational anticancer small molecules within a complex spheroid model of solid tumors. . Complex spheroids include a stromal component modeled by human endothelial cells (HUVEC) and fibroblasts modeled by human mesenchymal stem cells (MSCs). The concentration ranges selected for each drug and investigational agent were based upon clinically achievable concentrations if the clinical Cmax of the agent was known.
Compounds. The drugs and investigational agents: alrizomadlin (APG-115; NSC831270), pelcitoclax (APG-1252; NSC835773), dasminapant (APG-1387;NSC834197), TAK-243 (NSC785004), copanlisib (NSC809693), olaparib (NSC753686), talazoparib (NSC767125), cobimetinib (NSC 768068), eltanexor (KPT-8602, NSC 794443), abemaciclib (NSC 768073), sotorasib (NSC818433), adagrasib (NSC 831453), MRTX-1133 (NSC 836407), Iadademestat (ORY1001, NSC 806812), and RMC-4630 (NSC839698), were obtained from the NCI Developmental Therapeutics Program Chemical Repository. The FDA-approved anticancer drug set is available from the Developmental Therapeutics Program at https://dtp.cancer.gov/organization/dscb/obtaining/available plates.htm. […] The stock solutions were prepared in dimethyl sulfoxide (DMSO, Sigma-Aldrich, St. Louis, MO, cat. D2650) at 800-fold the tested concentration and stored at -70 degrees C prior to their use. All drugs and investigational agents were tested over a range starting from a high concentration at or near the clinical Cmax and decreasing in half-log increments. If the clinical Cmax for an agent had not been determined, the highest concentration tested was 10 microM.
The patient-derived cancer (PDC) cell lines include five colon adenocarcinomas: 186277-243-T-J2-PDC, 616215-338-R-J1-PDC, 439559-082-T-J2-PDC, 463943-066-T-J2-PDC, and 519858-162-T-J1-PDC; three pancreatic carcinomas: 323965-272-R-J2-PDC, 521955-158-R6-J3-PDC, and 521955-158-R2-J5-PDC; two uterine sarcomas: 327498-152-R-J2-PDC and 993429-296-R-J1-PDC; two rhabdomyosarcomas: 755483-174-R-J1-PDC and 772245-204-R-J1-PDC; two soft tissue sarcomas: 126254-015-R-J1-PDC and 494315-158-R-J1-PDC; two malignant fibrous histiocytomas: 317291-083-R-J1-PDC and 596521-263-R-J1-PDC; two breast carcinomas: 171881-019-R-J1-PDC and 885512-296-R-J2-PDC; and one ovarian carcinoma: 6556581-035-R-J-PDC were obtained from the NCI PDMR, (https://pdmr.cancer.gov). The established cell lines HSSY-2 synovial sarcoma (RRID:CVCL 8719), SYO-1 synovial sarcoma (RRID:CVCL_7146), MPNST malignant peripheral neural sheath tumor were obtained from the Sloan Kettering Institute. The following established cell lines were purchased from the American Type Culture Collection (ATCC, Manassas, VA), Sor the received from the NCI repository:, PANC-1 pancreatic carcinoma (CRL-1469, RRID:CVCL_0480), OVCAR-5 ovarian carcinoma (RRID:CVCL_1628), OVCAR-8 ovarian carcinoma (RRID:CVCL_1629), , MCF-7 breast carcinoma (CRL-12584, RRID:CVCL_0031), MDA-MB-231 breast carcinoma (CRL-12532, RRID:CVCL_0062), NCI-H1876 small cell lung carcinoma (CRL-5902, RRID:CVCL_1503), NCI-H510A small cell lung carcinoma (HTB-184, RRID:CVCL_1565), NCI-H1417 (CRL-5869, RRID:CVCL_1469), and NCI-H196 small cell lung carcinoma (CRL-5823, RRID:CVCL_1509). Dr. Peter Houghton (Greehey Children's Cancer Research Institute, University of Texas Health Science Center, San Antonio, TX) provided Rh-18 rhabdomyosarcoma (RRID:CVCL_1659). Pooled donor human umbilical vein endothelial cells (HUVEC, Lonza, cat. CC-2519) and human mesenchymal stem cells (hMSC, Lonza, cat. PT-2501) were purchased from Lonza (Walkersville, MD).
Cell Culture. […]

Cn1ncnc1[C@H]1c2n[nH]c(=O)c3cc(F)cc(c23)N[C@@H]1c1ccc(F)cc1 + CNC(C)C(=O)NC1CN(S(=O)(=O)c2cccc(S(=O)(=O)N3CCC4CCC(C(=O)NC(c5ccccc5)c5ccccc5)N4C(=O)C(NC(=O)C(C)NC)C3)c2)CCC2CCC(C(=O)NC(c3ccccc3)c3ccccc3)N2C1=O
inactive: viability, T/C (second compound 0.01 µM, first compound 0.000316 µM) 110% | viability, T/C (second compound 0.01 µM, first compound 0.001 µM) 115% | viability, T/C (second compound 0.01 µM, first compound 0.00316 µM) 96.8% | viability, T/C (second compound 0.01 µM, first compound 0.01 µM) 81.1% | viability, T/C (second compound 0.01 µM, first compound 0.0316 µM) 69.4% | viability, T/C (second compound 0.01 µM, first compound 0.1 µM) 85.3% | viability, T/C (second compound 0.0316 µM, first compound 0.000316 µM) 104% | viability, T/C (second compound 0.0316 µM, first compound 0.001 µM) 98.8% | viability, T/C (second compound 0.0316 µM, first compound 0.00316 µM) 94% | viability, T/C (second compound 0.0316 µM, first compound 0.01 µM) 87.4% | viability, T/C (second compound 0.0316 µM, first compound 0.0316 µM) 69% | viability, T/C (second compound 0.0316 µM, first compound 0.1 µM) 80.2% | viability, T/C (second compound 0.1 µM, first compound 0.000316 µM) 95.8% | viability, T/C (second compound 0.1 µM, first compound 0.001 µM) 93% | viability, T/C (second compound 0.1 µM, first compound 0.00316 µM) 90.9% | viability, T/C (second compound 0.1 µM, first compound 0.01 µM) 78.3% | viability, T/C (second compound 0.1 µM, first compound 0.0316 µM) 66.9% | viability, T/C (second compound 0.1 µM, first compound 0.1 µM) 74% | viability, T/C (second compound 0.316 µM, first compound 0.000316 µM) 99.6% | viability, T/C (second compound 0.316 µM, first compound 0.001 µM) 110% | viability, T/C (second compound 0.316 µM, first compound 0.00316 µM) 102% | viability, T/C (second compound 0.316 µM, first compound 0.01 µM) 78.5% | viability, T/C (second compound 0.316 µM, first compound 0.0316 µM) 64.3% | viability, T/C (second compound 0.316 µM, first compound 0.1 µM) 70.1% | viability, T/C (second compound 1 µM, first compound 0.000316 µM) 98% | viability, T/C (second compound 1 µM, first compound 0.001 µM) 112% | viability, T/C (second compound 1 µM, first compound 0.00316 µM) 95.4% | viability, T/C (second compound 1 µM, first compound 0.01 µM) 81.3% | viability, T/C (second compound 1 µM, first compound 0.0316 µM) 80% | viability, T/C (second compound 1 µM, first compound 0.1 µM) 84.4%
< 7.00: pIC50 (second compound 0.01 µM) | pIC50 (second compound 0.0316 µM) | pIC50 (second compound 0.1 µM) | pIC50 (second compound 0.316 µM) | pIC50 (second compound 1 µM)
